Reference: ChEMBL document CHEMBL1201862, “PubChem BioAssay data set” (2004)
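All cell lines were grown in 96-well plates and treated with compound for 48 hours. GI50 marks 50% less growth.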 Active and inactive are the calls of the source. Cut-off read from the data, not from the text of the source: active = GI50 up to about 1.1 µM and inactive = higher.

Key:
Experiment in all cases: growth of human tumour cells (NCI), 48 h
A498 = system: A498
IGROV-1 = system: IGROV-1
EKVX = system: EKVX
UO-31 = system: UO-31
SNB-78 = system: SNB-78
NCI-H226 = system: NCI-H226
CAKI-1 = system: CAKI-1
CCRF-CEM = system: CCRF-CEM
RXF 393 = system: RXF 393
LOX IMVI = system: LOX IMVI
HL-60 = system: HL-60
SK-OV-3 = system: SK-OV-3
SW-620 = system: SW-620
SK-MEL-5 = system: SK-MEL-5
786-0 = system: 786-0
KM-20L2 = system: KM-20L2
SK-MEL-28 = system: SK-MEL-28
Malme-3M = system: Malme-3M
DLD-1 = system: DLD-1
TK-10 = system: TK-10
SF-539 = system: SF-539
SNB-75 = system: SNB-75
SN12C = system: SN12C
COLO 205 = system: COLO 205
SF-295 = system: SF-295
SNB-19 = system: SNB-19
XF498 = system: XF498
HCT-15 = system: HCT-15
SF-268 = system: SF-268
M14 = system: M14
LXFL 529 = system: LXFL 529
UACC-257 = system: UACC-257
OVCAR-4 = system: OVCAR-4
OVCAR-5 = system: OVCAR-5
HOP-18 = system: HOP-18
NCI-H522 = system: NCI-H522
NCI-H460 = system: NCI-H460
U-251 = system: U-251
HOP-62 = system: HOP-62
HT-29 = system: HT-29
ACHN = system: ACHN
MOLT-4 = system: MOLT-4
HOP-92 = system: HOP-92
DMS-114 = system: DMS-114
KM12 = system: KM12
RPMI-8226 = system: RPMI-8226
UACC-62 = system: UACC-62
HCT-116 = system: HCT-116
DMS-273 = system: DMS-273
SR = system: SR
A549 = system: A549
SK-MEL-2 = system: SK-MEL-2
OVCAR-8 = system: OVCAR-8
NCI-H23 = system: NCI-H23
K562 = system: K562
M19-MEL = system: M19-MEL
OVCAR-3 = system: OVCAR-3
HCC 2998 = system: HCC 2998

In the case of `Cc1ccc([N+](=O)[O-])cc1NC(=O)/C(=N/NC(=S)NN)C1SC(=S)NC1=O` (stereo not given), the GI50 (A498) is reported as > 100 µM (inactive), the GI50 (IGROV-1) is reported as > 100 µM (inactive) and the GI50 (EKVX) is reported as > 100 µM (inactive). For the same compound, the GI50 (UO-31) was > 100 µM (inactive), the GI50 (SNB-78) was > 100 µM (inactive) and the GI50 (NCI-H226) was > 100 µM (inactive). The GI50 (CAKI-1) was > 100 µM (inactive), the GI50 (CCRF-CEM) was 40.2 µM (inactive) and the GI50 (RXF 393) was > 100 µM (inactive). The GI50 (LOX IMVI) was > 100 µM (inactive), the GI50 (HL-60) was 78.3 µM (inactive) and the GI50 (SK-OV-3) was > 100 µM (inactive). For the same compound, the GI50 (SW-620) was > 100 µM (inactive), the GI50 (SK-MEL-5) was > 100 µM (inactive) and the GI50 (786-0) was > 100 µM (inactive). The GI50 (KM-20L2) was > 100 µM (inactive), the GI50 (SK-MEL-28) was > 100 µM (inactive) and the GI50 (Malme-3M) was > 100 µM (inactive). The GI50 (DLD-1) was > 100 µM (inactive), the GI50 (TK-10) was > 100 µM (inactive) and the GI50 (SF-539) was > 100 µM (inactive). For the same compound, the GI50 (SNB-75) was > 100 µM (inactive), the GI50 (SN12C) was > 100 µM (inactive) and the GI50 (COLO 205) was > 100 µM (inactive). The GI50 (SF-295) was > 100 µM (inactive), the GI50 (SNB-19) was > 100 µM (inactive) and the GI50 (XF498) was > 100 µM (inactive). For the same compound, the GI50 (HCT-15) was greater than 100 µM, the GI50 (SF-268) was > 100 µM (inactive) and the GI50 (M14) was > 100 µM (inactive). For the same compound, the GI50 (LXFL 529) was > 100 µM (inactive), the GI50 (UACC-257) was > 100 µM (inactive) and the GI50 (OVCAR-4) was > 100 µM (inactive). The GI50 (OVCAR-5) was > 100 µM (inactive), the GI50 (HOP-18) was > 100 µM (inactive) and the GI50 (NCI-H522) was > 100 µM (inactive). The GI50 (NCI-H460) was > 100 µM (inactive), the GI50 (U-251) was > 100 µM (inactive) and the GI50 (HOP-62) was > 100 µM (inactive). The GI50 (HT-29) was > 100 µM (inactive), the GI50 (ACHN) was > 100 µM (inactive) and the GI50 (MOLT-4) was 78.9 µM (inactive). The GI50 (HOP-92) was > 100 µM (inactive), the GI50 (DMS-114) was > 100 µM (inactive) and the GI50 (KM12) was > 100 µM (inactive). The GI50 (RPMI-8226) was > 100 µM (inactive), the GI50 (UACC-62) was > 100 µM (inactive) and the GI50 (HCT-116) was > 100 µM (inactive). For the same compound, the GI50 (DMS-273) was > 100 µM (inactive), the GI50 (SR) was > 100 µM (inactive) and the GI50 (A549) was > 100 µM (inactive). For the same compound, the GI50 (SK-MEL-2) was > 100 µM (inactive), the GI50 (OVCAR-8) was > 100 µM (inactive) and the GI50 (NCI-H23) was > 100 µM (inactive). The GI50 (K562) was > 100 µM (inactive).
With `Cc1c(/C=N/NC(=O)c2ccccc2)c(=O)n(-c2ccccc2)n1C` the GI50 (A498) was > 100 µM (inactive), the GI50 (IGROV-1) was > 100 µM (inactive) and the GI50 (EKVX) was > 100 µM (inactive). For the same compound, the GI50 (UO-31) was > 100 µM (inactive), the GI50 (SNB-78) was > 100 µM (inactive) and the GI50 (NCI-H226) was > 100 µM (inactive). For the same compound, the GI50 (M19-MEL) was > 100 µM (inactive), the GI50 (CCRF-CEM) was > 100 µM (inactive) and the GI50 (RXF 393) was > 100 µM (inactive). For the same compound, the GI50 (LOX IMVI) was > 100 µM (inactive), the GI50 (HL-60) was > 100 µM (inactive) and the GI50 (SK-OV-3) was > 100 µM (inactive). For the same compound, the GI50 (SW-620) was > 100 µM (inactive), the GI50 (786-0) was > 100 µM (inactive) and the GI50 (KM-20L2) was > 100 µM (inactive). The GI50 (SK-MEL-28) was > 100 µM (inactive), the GI50 (Malme-3M) was > 100 µM (inactive) and the GI50 (DLD-1) was > 100 µM (inactive). The GI50 (OVCAR-3) was > 100 µM (inactive), the GI50 (TK-10) was > 100 µM (inactive) and the GI50 (SF-539) was > 100 µM (inactive). The GI50 (SNB-75) was > 100 µM (inactive), the GI50 (SN12C) was > 100 µM (inactive) and the GI50 (COLO 205) was > 100 µM (inactive). For the same compound, the GI50 (SF-295) was > 100 µM (inactive), the GI50 (SNB-19) was > 100 µM (inactive) and the GI50 (XF498) was > 100 µM (inactive). The GI50 (HCT-15) was greater than 100 µM, the GI50 (SF-268) was > 100 µM (inactive) and the GI50 (M14) was > 100 µM (inactive). The GI50 (LXFL 529) was > 100 µM (inactive), the GI50 (UACC-257) was > 100 µM (inactive) and the GI50 (HCC 2998) was > 100 µM (inactive). The GI50 (OVCAR-4) was > 100 µM (inactive), the GI50 (HOP-18) was > 100 µM (inactive) and the GI50 (NCI-H522) was > 100 µM (inactive). For the same compound, the GI50 (NCI-H460) was > 100 µM (inactive), the GI50 (U-251) was > 100 µM (inactive) and the GI50 (HOP-62) was > 100 µM (inactive). For the same compound, the GI50 (HT-29) was > 100 µM (inactive), the GI50 (ACHN) was > 100 µM (inactive) and the GI50 (MOLT-4) was > 100 µM (inactive). The GI50 (HOP-92) was > 100 µM (inactive), the GI50 (DMS-114) was > 100 µM (inactive) and the GI50 (KM12) was > 100 µM (inactive). For the same compound, the GI50 (RPMI-8226) was > 100 µM (inactive), the GI50 (UACC-62) was > 100 µM (inactive) and the GI50 (HCT-116) was > 100 µM (inactive). For the same compound, the GI50 (DMS-273) was > 100 µM (inactive), the GI50 (SR) was > 100 µM (inactive) and the GI50 (A549) was > 100 µM (inactive). For the same compound, the GI50 (SK-MEL-2) was > 100 µM (inactive), the GI50 (OVCAR-8) was > 100 µM (inactive) and the GI50 (NCI-H23) was > 100 µM (inactive). The GI50 (K562) was > 100 µM (inactive).
